Measurements reported in US20170334899A1, “AMINO-SUBSTITUTED ISOTHIAZOLES” (Bayer Pharma Aktiengesellschaft, priority 2014, published 2017).

Key:
[1] = system: human cervical tumor cell line HeLa (ATCC CCL-2); experiment: SAC-Formation - Paclitaxel-Induced Assay; type: cell-based; conditions: Homo sapiens, HeLa, 24 h, HeLa cells, paclitaxel 0.05 μM, test range 0.005 μM-20 μM, read-out: IC50 [mol/l] SAC-Formation - Paclitaxel-Induced Assay
In short: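 Read-out is high-content imaging of anti-phospho-H3 Ser10 (mitosis) and Hoechst 33342 (DNA, cell number), with decreased mitotic fraction marking checkpoint breakthrough. Compounds (0.005–20 μM) and 0.05 μM paclitaxel co-added to overnight-plated HeLa for 24 h at 37° C; four-parameter Hill fit.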

[2] = system: human cervical tumor cell line HeLa (ATCC CCL-2); experiment: SAC-Formation - Nocodazole-Induced Assay; type: cell-based; conditions: Homo sapiens, HeLa, 24 h, HeLa cells, nocodazole 0.1 μg/ml together with test compound, decrease of mitotic cells (phospho-histone H3 Ser10)
In short: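 Loss of phospho-histone H3 Ser10-positive cells, counted against Hoechst-stained nuclei by high-content imaging, marked mitotic breakthrough. Compounds (0.005–20 μM, 0.5% DMSO) were co-dosed with 0.1 μg/ml nocodazole onto HeLa cells for 24 h at 37 °C. Curves were fitted with a four-parameter Hill equation.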

| Compound | IC50 [1] [nM] | IC50 [2] [nM] |
| --- | --- | --- |
| Cc1nsc(Nc2cnc(C(F)(F)F)cn2)c1C(=O)Nc1ccc(OCCCNC(=O)C(F)(F)F)nc1 [Example 428, 3-Methyl-N-(6-{3-[(trifluoroacetyl)amino]propoxy}pyridin-3-yl)-5-{[5-(trifluoro-methyl)pyrazin-2-yl]amino}-1,2-thiazole-4-carboxamide] | 620 | 890 |
| Cc1nsc(Nc2nc3c(C(F)(F)F)cccc3s2)c1C(=O)Nc1ccc(OCCO)nc1 [Example 2, N-[6-(2-Hydroxyethoxy)pyridin-3-yl]-3-methyl-5-{[4-(trifluoromethyl)-1,3-benzo-thiazol-2-yl]amino}-1,2-thiazole-4-carboxamide] | 460 | 560 |
| Cc1nsc(Nc2cnc(C(F)(F)F)cn2)c1C(=O)Nc1ccc(OC2CCNCC2)c(F)c1 [Example 431, N-[3-Fluoro-4-(piperidin-4-yloxy)phenyl]-3-methyl-5-{[5-(trifluoromethyl)pyrazin-2-yl]amino}-1,2-thiazole-4-carboxamide] | 10000 | 10000 |
| Cc1nsc(Nc2nc3c(C(F)(F)F)cccc3s2)c1C(=O)Nc1ccc(OCCO)c(F)c1 [Example 4, N-[3-Fluoro-4-(2-hydroxyethoxy)phenyl]-3-methyl-5-{[4-(trifluoromethyl)-1,3-benzothiazol-2-yl]amino}-1,2-thiazole-4-carboxamide] | 980 | 980 |
| Cc1nsc(Nc2cnc3ccccc3n2)c1C(=O)Nc1cccc(C(=O)N2CCOCC2)c1 [Example 52, 3-Methyl-N-[3-(morpholin-4-ylcarbonyl)phenyl]-5-(quinoxalin-2-ylamino)-1,2-thiazole-4-carboxamide] | 780 | 28 |
| Cc1nsc(Nc2cnc3ccccc3n2)c1C(=O)Nc1cccc(C(=O)O)c1 [Example 51, 3-({[3-Methyl-5-(quinoxalin-2-ylamino)-1,2-thiazol-4-yl]carbonyl}amino)benzoic acid] | 20000 | 20000 |

Compounds with a lower IC50 [1], results first:

| IC50 [1] [nM] | IC50 [2] [nM] | Compound |
| --- | --- | --- |
| 250 | 41 | Cc1nsc(Nc2ccc(C#N)cn2)c1C(=O)Nc1ccc(OCCCNC(=O)OC(C)(C)C)nc1 [Example 46, tert-Butyl [3-({5-[({5-[(5-cyanopyridin-2-yl)amino]-3-methyl-1,2-thiazol-4-yl}-carbonyl)amino]pyridin-2-yl}oxy)propyl]carbamate] |
| 79 | 39 | Cc1nsc(Nc2cnc(C(F)(F)F)cn2)c1C(=O)Nc1ccc(OCCN2CCC(F)(F)CC2)nc1 [Example 407, N-{6-[2-(4,4-Difluoropiperidin-1-yl)ethoxy]pyridin-3-yl}-3-methyl-5-{[5-(trifluoromethyl)pyrazin-2-yl]amino}-1,2-thiazole-4-carboxamide] |
| 32 | 9.4 | Cc1nsc(Nc2cnc(C(F)(F)F)cn2)c1C(=O)Nc1ccc(F)c(O[C@H]2CCN(CC(F)F)C2)c1 [Example 417, N-(3-{[(3S)-1-(2,2-Difluoroethyl)pyrrolidin-3-yl]oxy}-4-fluorophenyl)-3-methyl-5-{[5-(trifluoromethyl)pyrazin-2-yl]amino}-1,2-thiazole-4-carboxamide] |
| 24 | 15 | Cc1nsc(Nc2ccc(C#N)cn2)c1C(=O)Nc1ccc(OC2CCCN(CC(F)F)C2)nc1 (stereo not shown) [Example 39, 5-[(5-Cyanopyridin-2-yl)amino]-N-(6-{[1-(2,2-difluoroethyl)piperidin-3-yl]oxy}-pyridin-3-yl)-3-methyl-1,2-thiazole-4-carboxamide] |
| 20 | 63 | Cc1nsc(Nc2cnc(C(F)(F)F)cn2)c1C(=O)Nc1ccc(OC[C@H]2CCN(CC(F)(F)F)C2)nc1 [Example 404, 3-Methyl-N-(6-{[(3S)-1-(2,2,2-trifluoroethyl)pyrrolidin-3-yl]methoxy}pyridin-3-yl)-5-{[5-(trifluoromethyl)pyrazin-2-yl]amino}-1,2-thiazole-4-carboxamide] |
